Measurements as given in the RepoRT retention time repository (doi:10.1093/pcp/pcn183).
Where a name gives a salt, the structure may show the parent alone.

Test: RP, Waters ACQUITY UPLC BEH C18, 38 °C, 0.24 mL/min; A: water + 0.1% formic acid, pH 3; B: acetonitrile + 0.1% formic acid, pH 3; gradient (min/%B) 0/0 0.25/0 0.4/9 0.8/17 1.9/100 2.1/100 2.11/0 3/0
Conditions: stereoisomer not certain

Row | SMILES | LC retention time
1 | N[C@H](CO)Cc1cnc[nH]1 [L-Histidinol dihydrochloride] | 0.14 min
2 | CC(C)C(N)CC(=O)O [L-beta-homovaline-HCl] | 0.55 min
3 | COc1cc(C=CCO)cc(OC)c1O [Sinapyl alcohol] | 2.13 min
4 | N[C@@H](Cc1ccc(O)c(Cl)c1)C(=O)O [3-Chloro-L-tyrosine hydrochloride] | 1.1 min
5 | O=C(O)C=Cc1cnc[nH]1 [urocanic acid] | 0.38 min
6 | Nc1ncnc2nc[nH]c12 [Adenine] | 0.32 min
7 | CCCCCCC(=O)O [n-heptanoic acid] | 0.29 min
8 | CCCCCCCCCCCC(=O)OCC(O)COP(=O)([O-])OCC[N+](C)(C)C (stereo unspecified) [Phosphocholine,1-Lauroyl-2-Hydroxy-sn-Glycero-3-] | 1.79 min
9 | Nc1ncn[nH]1 [3-Amino-1,2,4-triazole] | 0.18 min

The next lines start with the values.

Row | LC retention time | SMILES
10 | 0.23 min | CC(=O)NCCCCN [N-acetyl putrescine hydrochloride]
11 | 1.16 min | N[C@H](CC(=O)O)Cc1ccccc1 [L-beta-Homophenylalanine hydrochloride]
12 | 1.06 min | CC(O)C(=O)SCC(NC(=O)CCC(N)C(=O)O)C(=O)NCC(=O)O (stereo unspecified) [S-Lactoylglutathione]
13 | 0.17 min | N[C@@H](CCO)C(=O)O [L-Homoserine]
14 | 1.84 min | CCCCCCCCCCCCCC=CC(O)C(N)COC1OC(CO)C(O)C(O)C1O [D-Glucosyl-beta1-1'-D-erythoro-Sphingosine]
15 | 0.23 min | N[C@@H](CCSSCC[C@H](N)C(=O)O)C(=O)O (racemic) [DL-homocystine]
16 | 0.39 min | Nc1ncnc2c1ncn2C1OC(COP(=O)(O)O)C(O)C1O (stereo unspecified) [Adenosine-5'-monophosphate sodium salt]
